# Measurements published in the supplement of paper PMC10307832.
# What was measured:
# Assay in all cases: relative viability (nuclei count vs DMSO), 5 days (fraction); higher = more cells survive
# [1] = system: A-427
# Summary of the method: (§1)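 Dosing by pin tool came one day after lung cancer cell lines were seeded in 1536-well plates, using either one drug or a fixed anchor-drug dose plus five library-drug doses (not always all listed) in √10 steps. After 5 days, nuclei were counted on 4× images. Relative viability is treated-well nuclei count divided by vehicle-well nuclei count, and values are medians of duplicate plates.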
# [2] = system: LU99A
# Summary of the method: as §1
# [3] = system: NCI-H2009
# Summary of the method: as §1
# [4] = system: EMC-BAC-2
# Summary of the method: as §1
# [5] = system: HARA
# Summary of the method: as §1
# [6] = system: NCI-H1993
# Summary of the method: as §1
# [7] = system: NCI-H727
# Summary of the method: as §1
# [8] = system: LK-2
# Summary of the method: as §1
# [9] = system: NCI-H2170
# Summary of the method: as §1
# [10] = system: SW 1573
# Summary of the method: as §1
# [11] = system: HOP-62
# Summary of the method: as §1
# [12] = system: NCI-H596
# Summary of the method: as §1
# [13] = system: SK-MES-1
# Summary of the method: as §1
# [14] = system: NCI-H1792
# Summary of the method: as §1
# [15] = system: SK-LU-1
# Summary of the method: as §1
# [16] = system: NCI-H3122
# Summary of the method: as §1
# [17] = system: NCI-H1793
# Summary of the method: as §1
# [18] = system: PC-3 [JPC-3]
# Summary of the method: as §1
# [19] = system: SW 900
# Summary of the method: as §1
# [20] = system: COR-L23
# Summary of the method: as §1
# [21] = system: NCI-H1944
# Summary of the method: as §1
# [22] = system: LXF-289
# Summary of the method: as §1
# [23] = system: ABC-1
# Summary of the method: as §1
structure (smiles),measurement,setting,value
C[C@@H]1CN(CC(=O)Nc2ccc3c(c2)Cc2cccc(-c4cc(=O)cc(N5CCOCC5)o4)c2S3)C[C@H](C)O1 + Nc1ncn([C@H]2C[C@H](O)[C@@H](CO)O2)c(=O)n1 [Decitabine] (partner 2 µM),relative viability,[1]; first compound 0.04 µM,0.533
same,relative viability,[1]; first compound 0.1265 µM,0.605
same,relative viability,[1]; first compound 0.4 µM,0.562
same,relative viability,[1]; first compound 4 µM,0.587
same,relative viability,[2]; first compound 0.04 µM,0.815
same,relative viability,[2]; first compound 0.1265 µM,0.928
same,relative viability,[2]; first compound 0.4 µM,0.859
same,relative viability,[2]; first compound 4 µM,0.851
same,relative viability,[3]; first compound 0.04 µM,0.31
same,relative viability,[3]; first compound 0.1265 µM,0.363
same,relative viability,[3]; first compound 0.4 µM,0.383
same,relative viability,[3]; first compound 4 µM,0.34
same,relative viability,[4]; first compound 0.04 µM,0.887
same,relative viability,[4]; first compound 0.1265 µM,1.05
same,relative viability,[4]; first compound 0.4 µM,0.948
same,relative viability,[4]; first compound 4 µM,0.827
same,relative viability,[5]; first compound 0.04 µM,0.594
same,relative viability,[5]; first compound 0.1265 µM,0.522
same,relative viability,[5]; first compound 0.4 µM,0.454
same,relative viability,[5]; first compound 4 µM,0.717
same,relative viability,[6]; first compound 0.04 µM,0.701
same,relative viability,[6]; first compound 0.1265 µM,0.55
same,relative viability,[6]; first compound 0.4 µM,0.566
same,relative viability,[6]; first compound 4 µM,0.644
same,relative viability,[7]; first compound 0.04 µM,1.14
same,relative viability,[7]; first compound 0.1265 µM,1
same,relative viability,[7]; first compound 0.4 µM,0.99
same,relative viability,[7]; first compound 4 µM,0.8
same,relative viability,[8]; first compound 0.04 µM,0.258
same,relative viability,[8]; first compound 0.1265 µM,0.279
same,relative viability,[8]; first compound 0.4 µM,0.198
same,relative viability,[8]; first compound 4 µM,0.257
same,relative viability,[9]; first compound 0.04 µM,0.492
same,relative viability,[9]; first compound 0.1265 µM,0.459
same,relative viability,[9]; first compound 0.4 µM,0.508
same,relative viability,[9]; first compound 4 µM,0.464
same,relative viability,[10]; first compound 0.04 µM,0.572
same,relative viability,[10]; first compound 0.1265 µM,0.56
same,relative viability,[10]; first compound 0.4 µM,0.483
same,relative viability,[10]; first compound 4 µM,0.615
same,relative viability,[11]; first compound 0.04 µM,0.229
same,relative viability,[11]; first compound 0.1265 µM,0.202
same,relative viability,[11]; first compound 0.4 µM,0.187
same,relative viability,[11]; first compound 4 µM,0.245
same,relative viability,[12]; first compound 0.04 µM,1.01
same,relative viability,[12]; first compound 0.1265 µM,1.11
same,relative viability,[12]; first compound 0.4 µM,1.11
same,relative viability,[12]; first compound 4 µM,0.798
same,relative viability,[13]; first compound 0.04 µM,0.356
same,relative viability,[13]; first compound 0.1265 µM,0.368
same,relative viability,[13]; first compound 0.4 µM,0.433
same,relative viability,[13]; first compound 4 µM,0.446
same,relative viability,[14]; first compound 0.04 µM,0.627
same,relative viability,[14]; first compound 0.1265 µM,0.51
same,relative viability,[14]; first compound 0.4 µM,0.542
same,relative viability,[14]; first compound 4 µM,0.441
same,relative viability,[15]; first compound 0.04 µM,0.693
same,relative viability,[15]; first compound 0.1265 µM,0.719
same,relative viability,[15]; first compound 0.4 µM,0.646
same,relative viability,[15]; first compound 4 µM,0.59
same,relative viability,[16]; first compound 0.04 µM,0.423
same,relative viability,[16]; first compound 0.1265 µM,0.396
same,relative viability,[16]; first compound 0.4 µM,0.42
same,relative viability,[16]; first compound 4 µM,0.436
same,relative viability,[17]; first compound 0.04 µM,0.536
same,relative viability,[17]; first compound 0.1265 µM,0.552
same,relative viability,[17]; first compound 0.4 µM,0.503
same,relative viability,[17]; first compound 4 µM,0.526
same,relative viability,[18]; first compound 0.04 µM,0.789
same,relative viability,[18]; first compound 0.1265 µM,0.841
same,relative viability,[18]; first compound 0.4 µM,0.854
same,relative viability,[18]; first compound 4 µM,0.781
same,relative viability,[19]; first compound 0.04 µM,0.453
same,relative viability,[19]; first compound 0.1265 µM,0.427
same,relative viability,[19]; first compound 0.4 µM,0.515
same,relative viability,[19]; first compound 4 µM,0.43
same,relative viability,[20]; first compound 0.04 µM,0.431
same,relative viability,[20]; first compound 0.1265 µM,0.445
same,relative viability,[20]; first compound 0.4 µM,0.569
same,relative viability,[20]; first compound 4 µM,0.612
same,relative viability,[21]; first compound 0.1265 µM,0.438
same,relative viability,[21]; first compound 0.4 µM,0.466
same,relative viability,[21]; first compound 4 µM,0.457
same,relative viability,[22]; first compound 0.04 µM,0.374
same,relative viability,[22]; first compound 0.1265 µM,0.354
same,relative viability,[22]; first compound 0.4 µM,0.419
same,relative viability,[22]; first compound 4 µM,0.419
same,relative viability,[23]; first compound 0.04 µM,0.303
same,relative viability,[23]; first compound 0.1265 µM,0.897
same,relative viability,[23]; first compound 0.4 µM,0.947
same,relative viability,[23]; first compound 4 µM,1.48
